According to patent publication US6962920B2, “Pyrimidine derivatives and methods of making and using these derivatives” (Duquesne University of the Holy Ghost, priority 1992, dated 2005):
Where two headings read alike, the source gives them in different places.

Columns and labels:
RXF 393 = experiment: NCI in vitro anti-cancer activity, Renal Cancer; type: cell-based
NCI-H522 = type: cell-based
R30dm cells = experiment: Growth inhibition of R30dm subline (decreased polyglutamate synthase); type: cell-based; settings: Homo sapiens, Table 8, continuous (0-120 hours) exposure, read-out: Growth inhibition EC50, R30dm
SF-268 = experiment: NCI in vitro anti-cancer activity, CNS Cancer; type: cell-based
IGROV1 = experiment: NCI in vitro anti-cancer activity, Ovarian Cancer; type: cell-based
OVCAR-3 = experiment: NCI in vitro anti-cancer activity, Ovarian Cancer; type: cell-based
OVCAR-8 = experiment: NCI in vitro anti-cancer activity, Ovarian Cancer; type: cell-based
SW-620 = experiment: NCI in vitro anti-cancer activity, Colon Cancer; type: cell-based
OVCAR-5 = experiment: NCI in vitro anti-cancer activity, Ovarian Cancer; type: cell-based
LOX IMVI = experiment: NCI in vitro anti-cancer activity, Melanoma; type: cell-based
R2 cells = experiment: Growth inhibition of R2 subline (MTX-transport deficient); type: cell-based; settings: Homo sapiens; Table 8; continuous (0-120 hours) exposure; read-out: Growth inhibition EC50, R2
SK-MEL-2 = experiment: NCI in vitro anti-cancer activity, Melanoma; type: cell-based
MDA-MB-231/ATCC = experiment: NCI in vitro anti-cancer activity, Breast Cancer; type: cell-based
OVCAR-4 = experiment: NCI in vitro anti-cancer activity, Ovarian Cancer; type: cell-based
HOP-92 = type: cell-based
NCI-H226 = type: cell-based
SR = experiment: NCI in vitro anti-cancer activity, Leukemia; type: cell-based
SF-539 = experiment: NCI in vitro anti-cancer activity, CNS Cancer; type: cell-based
SF-295 = experiment: NCI in vitro anti-cancer activity, CNS Cancer; type: cell-based
MCF7/ADR-RES = experiment: NCI in vitro anti-cancer activity, Breast Cancer; type: cell-based; settings: Homo sapiens
MALME-3M = experiment: NCI in vitro anti-cancer activity, Melanoma; type: cell-based
FaDu = experiment: Growth inhibition of FaDu human squamous carcinoma cell line; type: cell-based; settings: Homo sapiens, FaDu; Table 9; continuous (120 hours) exposure; read-out: Growth inhibition EC50, FaDu
EKVX = type: cell-based
TK-10 = experiment: NCI in vitro anti-cancer activity, Renal Cancer; type: cell-based
KM12 = experiment: NCI in vitro anti-cancer activity, Colon Cancer; type: cell-based
SNB-75 = experiment: NCI in vitro anti-cancer activity, CNS Cancer; type: cell-based
HT29 = experiment: NCI in vitro anti-cancer activity, Colon Cancer; type: cell-based
HCT-116 = experiment: NCI in vitro anti-cancer activity, Colon Cancer; type: cell-based
NCI-H460 = type: cell-based; settings: Table 29, Non-Small Cell Lung Cancer
RPMI-8226 = experiment: NCI in vitro anti-cancer activity, Leukemia; type: cell-based; settings: Table 29, Leukemia
NCI/ADR-RES = experiment: NCI in vitro anti-cancer activity, breast cancer; settings: Table 29, Breast Cancer, NCI/ADRRES
From the text: (§1) The compounds identified below were further tested for their in vitro anti-cancer activity by the National Cancer Institute.

SK-MEL-5 = experiment: NCI in vitro anti-cancer activity, Melanoma; type: cell-based; settings: Table 29, Melanoma
UACC-257 = experiment: NCI in vitro anti-cancer activity, Melanoma; type: cell-based; settings: Table 29, Melanoma
K-562 = experiment: NCI in vitro anti-cancer activity; settings: Table 29, Leukemia
From the text: as §1

MOLT-4 = experiment: NCI in vitro anti-cancer activity, Leukemia; type: cell-based; settings: Table 29, Leukemia
CCRF-CEM = experiment: NCI in vitro anti-cancer activity, Leukemia; type: cell-based; settings: Table 29, Leukemia
[1] = Table 29, Renal Cancer, RXF 393
[2] = Table 29, Non-Small Cell Lung Cancer, NCI-H522
[3] = Table 29, Ovarian Cancer, IGROV1
[4] = Table 29, Ovarian Cancer, OVCAR-3
[5] = Table 29, Ovarian Cancer, OVCAR-8
[6] = Table 29, Ovarian Cancer, OVCAR-4
[7] = Table 29, Non-Small Cell Lung Cancer, HOP-92
[8] = Table 29, Non-Small Cell Lung Cancer, NCI-H226
[9] = Table 29, Non-Small Cell Lung Cancer, read-out: GI50
[10] = Table 29, Ovarian Cancer, OVCAR-5

In the case of `Nc1nc(N)c2c(CNc3ccc(C(=O)N[C@@H](CCC(=O)O)C(=O)O)cc3)c[nH]c2n1` [Compound 9], the GI50 (RXF 393; Homo sapiens, RXF 393, Renal Cancer) is reported as over 100 µM, the GI50 (NCI-H522; Homo sapiens, NCI-H522, Non-Small Cell Lung Cancer) is reported as over 100 µM and the EC50 (R30dm cells) is reported as 0.036 ± 0.001 µM. For the same molecule, the GI50 (SF-268; Homo sapiens, SF-268, CNS Cancer) was under 0.01 µM, the GI50 (IGROV1; Homo sapiens, IGROV-1, IGROV1, Ovarian Cancer) was under 0.01 µM and the GI50 (OVCAR-3; Homo sapiens, OVCAR-3, Ovarian Cancer) was over 100 µM. It also gave a GI50 (OVCAR-8; Homo sapiens, OVCAR-8, Ovarian Cancer) of under 0.01 µM, a GI50 (SW-620; Homo sapiens, SW-620, Colon Cancer) of 3.15 µM and a GI50 (OVCAR-5; Homo sapiens, OVCAR-5, Ovarian Cancer) of over 100 µM. It also gave a GI50 (LOX IMVI; Homo sapiens, Melanoma) of under 0.01 µM, an EC50 (R2 cells) of 1.65 ± 0.2 µM and a GI50 (SK-MEL-2; Homo sapiens, SK-MEL-2, Melanoma) of over 100 µM. For the same molecule, the GI50 (MDA-MB-231/ATCC; Homo sapiens, Breast Cancer) was over 100 µM, the GI50 (OVCAR-4; Homo sapiens, OVCAR-4, Ovarian Cancer) was over 100 µM and the GI50 (HOP-92; Homo sapiens, HOP-92, Non-Small Cell Lung Cancer) was 8.4 µM. For the same molecule, the GI50 (NCI-H226; Homo sapiens, NCI-H226, Non-Small Cell Lung Cancer) was over 100 µM, the GI50 (SR; Homo sapiens, Leukemia) was over 100 µM and the GI50 (SF-539; Homo sapiens) was under 0.01 µM. For the same molecule, the GI50 (SF-295; Homo sapiens, SF-295, CNS Cancer) was under 0.01 µM, the GI50 (MCF7/ADR-RES) was under 0.01 µM and the GI50 (MALME-3M; Homo sapiens, Melanoma) was under 0.01 µM. The EC50 (FaDu) was 0.022 ± 0.004 µM, the GI50 (EKVX; Homo sapiens, Non-Small Cell Lung Cancer, read-out: GI50) was 39.7 µM and the GI50 (TK-10; Homo sapiens, TK-10, Renal Cancer) was over 100 µM. The GI50 (KM12; Homo sapiens, KM12, Colon Cancer) was 33.2 µM, the GI50 (SNB-75; Homo sapiens, SNB-75, CNS Cancer) was under 0.01 µM and the GI50 (HT29; Homo sapiens, HT-29, HT29, Colon Cancer) was under 0.01 µM. It also gave a GI50 (HCT-116; Homo sapiens) of under 0.01 µM.

`COc1cc(CCc2c[nH]c3nc(N)nc(C)c23)cc(OC)c1OC` [Compound 113-154A] gave a GI50 (RXF 393; [1]) of 32.7 µM, a GI50 (NCI-H522; [2]) of 25 µM and a GI50 (SF-268; Table 29, CNS Cancer, SF-268) of 39.5 µM. The GI50 (IGROV1; [3]) was 17.3 µM, the GI50 (NCI-H460) was 19.3 µM and the GI50 (RPMI-8226) was 67.4 µM. The GI50 (OVCAR-3; [4]) was 74.8 µM, the GI50 (OVCAR-8; [5]) was 31.1 µM and the GI50 (LOX IMVI; Table 29, Melanoma) was 30 µM. The GI50 (SK-MEL-2; Table 29, Melanoma, SK-MEL-2) was 98.3 µM, the GI50 (MDA-MB-231/ATCC; Table 29, Breast Cancer) was 37.3 µM and the GI50 (NCI/ADR-RES) was 25.9 µM. It also gave a GI50 (OVCAR-4; [6]) of 77.8 µM, a GI50 (SK-MEL-5) of 37.3 µM and a GI50 (HOP-92; [7]) of 18.2 µM. It also gave a GI50 (NCI-H226; [8]) of 23 µM, a GI50 (SR; Table 29, Leukemia) of 32.5 µM and a GI50 (SF-539; Table 29, CNS Cancer) of 20.4 µM. It also gave a GI50 (UACC-257) of 56.4 µM, a GI50 (SF-295; Table 29, CNS Cancer, SF-295) of 36.6 µM and a GI50 (MALME-3M; Table 29, Melanoma) of 47.4 µM. For the same molecule, the GI50 (K-562) was 23 µM, the GI50 (EKVX; Non-Small Cell Lung Cancer) was “selective” and the GI50 (EKVX; [9]) was 5.21 µM. For the same molecule, the GI50 (MOLT-4) was 38.7 µM, the GI50 (TK-10; Table 29, Renal Cancer, TK-10) was 58.9 µM and the GI50 (KM12; Table 29, Colon Cancer, KM12) was 46.5 µM. It also gave a GI50 (SNB-75; Table 29, CNS Cancer, SNB-75) of 27.5 µM, a GI50 (HT29; Table 29, Colon Cancer, HT29) of 10 µM and a GI50 (HCT-116; Table 29, Colon Cancer) of 36.8 µM.

Work on `COc1ccc(CCc2cn(Cc3ccccc3)c3nc(N)nc(C)c23)cc1` [Compound 113-118] yielded a GI50 (RXF 393; [1]) of 94.7 µM, a GI50 (NCI-H522; [2]) of 29.1 µM and a GI50 (SF-268; Table 29, CNS Cancer, SF-268) of over 100 µM. It also gave a GI50 (IGROV1; [3]) of 68.2 µM, a GI50 (NCI-H460) of 42.5 µM and a GI50 (RPMI-8226) of over 100 µM. The GI50 (OVCAR-3; [4]) was over 100 µM, the GI50 (OVCAR-8; [5]) was 52.5 µM and the GI50 (SW-620; Table 29, Colon Cancer, SW-620) was over 100 µM. It also gave a GI50 (OVCAR-5; [10]) of over 100 µM, a GI50 (LOX IMVI; Table 29, Melanoma) of 50 µM and a GI50 (SK-MEL-2; Table 29, Melanoma, SK-MEL-2) of over 100 µM. For the same molecule, the GI50 (MDA-MB-231/ATCC; Table 29, Breast Cancer) was under 100 µM, the GI50 (OVCAR-4; [6]) was 80.1 µM and the GI50 (HOP-92; [7]) was 31 µM. It also gave a GI50 (NCI-H226; [8]) of over 100 µM, a GI50 (SF-539; Table 29, CNS Cancer) of 30.2 µM and a GI50 (SF-295; Table 29, CNS Cancer, SF-295) of 79.3 µM. For the same molecule, the GI50 (MALME-3M; Table 29, Melanoma) was 19.5 µM, the GI50 (CCRF-CEM) was over 100 µM and the GI50 (TK-10; Table 29, Renal Cancer, TK-10) was over 100 µM. For the same molecule, the GI50 (KM12; Table 29, Colon Cancer, KM12) was 48.4 µM, the GI50 (SNB-75; Table 29, CNS Cancer, SNB-75) was over 100 µM and the GI50 (HT29; Table 29, Colon Cancer, HT29) was 48.4 µM. It also gave a GI50 (HCT-116; Table 29, Colon Cancer) of 48.3 µM.

Molecule `COc1ccccc1CCc1cn(Cc2ccccc2)c2nc(N)nc(C)c12` [Compound 113-148] has a GI50 (RXF 393; [1]) of 11.1 µM, a GI50 (NCI-H522; [2]) of 8.34 µM and a GI50 (SF-268; Table 29, CNS Cancer, SF-268) of 11 µM. The GI50 (IGROV1; [3]) was 14.2 µM, the GI50 (NCI-H460) was 7.7 µM and the GI50 (OVCAR-3; [4]) was 14.8 µM. The GI50 (OVCAR-8; [5]) was 17.6 µM, the GI50 (SW-620; Table 29, Colon Cancer, SW-620) was 17.1 µM and the GI50 (OVCAR-5; [10]) was 10.8 µM. The GI50 (LOX IMVI; Table 29, Melanoma) was 13.7 µM, the GI50 (SK-MEL-2; Table 29, Melanoma, SK-MEL-2) was 13.1 µM and the GI50 (MDA-MB-231/ATCC; Table 29, Breast Cancer) was 10.8 µM. The GI50 (NCI/ADR-RES) was 6.75 µM, the GI50 (OVCAR-4; [6]) was 8.88 µM and the GI50 (SK-MEL-5) was 5.8 µM. It also gave a GI50 (HOP-92; [7]) of 16.3 µM, a GI50 (NCI-H226; [8]) of 12.4 µM and a GI50 (SR; Table 29, Leukemia) of 3.51 µM. It also gave a GI50 (SF-539; Table 29, CNS Cancer) of 7.2 µM, a GI50 (UACC-257) of 6.36 µM and a GI50 (SF-295; Table 29, CNS Cancer, SF-295) of 8.43 µM. It also gave a GI50 (MALME-3M; Table 29, Melanoma) of 18.6 µM, a GI50 (K-562) of 5.91 µM and a GI50 (EKVX; [9]) of 5.78 µM. It also gave a GI50 (CCRF-CEM) of 2.97 µM, a GI50 (MOLT-4) of 7.46 µM and a GI50 (TK-10; Table 29, Renal Cancer, TK-10) of 10.2 µM. The GI50 (KM12; Table 29, Colon Cancer, KM12) was 12.2 µM, the GI50 (SNB-75; Table 29, CNS Cancer, SNB-75) was 17.6 µM and the GI50 (HT29; Table 29, Colon Cancer, HT29) was 4.77 µM. It also gave a GI50 (HCT-116; Table 29, Colon Cancer) of 4.51 µM.
